The target of test [1] is BRAF (Homo sapiens, UniProt P15056). As to the kind of experiment: In vitro kinase assay. The class given is biochemical. As to the method:
(§1) The in vitro kinase inhibitory selectivity and activity of belvarafenib were evaluated in a kinase panel assay against 189 kinases and a subsequent confirmatory assay against selected kinases by using Z′-Lyte® biochemical assay, Lantha® binding assay and Adapter® assay.

For test [2], the target named is BRAF^V599E (Homo sapiens, UniProt P15056, V600E). As to the kind of experiment: In vitro kinase assay. Type of test: biochemical. The note with it: read-out: inhibition of enzymatic activity, BRAF^V599E. As to the method: as §1
Test [3] concerns the target DDR1 (Homo sapiens, UniProt Q08345). As to the kind of experiment: In vitro kinase assay. The class given is biochemical. As to the method: as §1
Test [4] addresses RAF-1 (CRAF) Y340D Y341D (Homo sapiens, UniProt P04049, Y340D/Y341D). Description: In vitro kinase assay. The class given is biochemical. As to the method:
as §1

The target in test [5] is T1, DDR2 (Homo sapiens, UniProt Q16832).
T1 sequence (Q16832 22-855): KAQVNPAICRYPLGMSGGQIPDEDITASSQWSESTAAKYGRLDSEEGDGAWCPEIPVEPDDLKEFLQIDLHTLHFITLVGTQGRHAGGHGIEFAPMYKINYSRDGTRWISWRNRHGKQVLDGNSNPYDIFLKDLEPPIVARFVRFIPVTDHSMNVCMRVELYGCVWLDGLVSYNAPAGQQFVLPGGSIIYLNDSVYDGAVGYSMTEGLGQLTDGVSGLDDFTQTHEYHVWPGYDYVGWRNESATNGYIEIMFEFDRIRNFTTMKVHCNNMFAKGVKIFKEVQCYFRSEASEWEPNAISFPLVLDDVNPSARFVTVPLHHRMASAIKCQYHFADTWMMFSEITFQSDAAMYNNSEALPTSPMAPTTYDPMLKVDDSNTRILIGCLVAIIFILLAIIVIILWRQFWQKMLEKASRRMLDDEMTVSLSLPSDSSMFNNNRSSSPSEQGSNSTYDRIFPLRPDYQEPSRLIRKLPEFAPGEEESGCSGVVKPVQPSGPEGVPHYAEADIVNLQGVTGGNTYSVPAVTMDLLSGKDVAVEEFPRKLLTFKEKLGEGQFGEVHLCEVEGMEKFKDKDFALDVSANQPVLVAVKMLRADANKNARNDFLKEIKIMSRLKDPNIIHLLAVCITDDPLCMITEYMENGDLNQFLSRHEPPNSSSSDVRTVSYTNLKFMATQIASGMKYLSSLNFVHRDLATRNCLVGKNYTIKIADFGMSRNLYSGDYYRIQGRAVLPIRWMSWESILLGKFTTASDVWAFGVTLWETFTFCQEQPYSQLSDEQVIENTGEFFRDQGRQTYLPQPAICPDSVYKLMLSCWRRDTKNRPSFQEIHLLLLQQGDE
Description: In vitro kinase assay. Type of test: biochemical. As to the method:
as §1

Test [6] has as its target CSF1R (FMS) (Homo sapiens, UniProt P07333). As to the kind of experiment: In vitro kinase assay. The class given is biochemical. The protocol:
as §1

In test [7] the test system is MEK and ERK phosphorylation in Lovo (KRAS^G13D) cells. As to the kind of experiment: Inhibition of MEK and ERK phosphorylation, KRAS mutant. Type of test: cell-based. The note with it: Homo sapiens; for IC50: CRC Lovo, KRAS G13D, 2 hr treatment.

Experimental findings from patent US20230233567A1, “BELVARAFENIB FOR USE IN CANCER TREATMENT” (Hanmi Pharm. Co., Ltd., priority 2020, published 2023) are described below.

Read-outs that look alike come from different tables or passages of the source.

Chain of BRAF (P15056 whole entry): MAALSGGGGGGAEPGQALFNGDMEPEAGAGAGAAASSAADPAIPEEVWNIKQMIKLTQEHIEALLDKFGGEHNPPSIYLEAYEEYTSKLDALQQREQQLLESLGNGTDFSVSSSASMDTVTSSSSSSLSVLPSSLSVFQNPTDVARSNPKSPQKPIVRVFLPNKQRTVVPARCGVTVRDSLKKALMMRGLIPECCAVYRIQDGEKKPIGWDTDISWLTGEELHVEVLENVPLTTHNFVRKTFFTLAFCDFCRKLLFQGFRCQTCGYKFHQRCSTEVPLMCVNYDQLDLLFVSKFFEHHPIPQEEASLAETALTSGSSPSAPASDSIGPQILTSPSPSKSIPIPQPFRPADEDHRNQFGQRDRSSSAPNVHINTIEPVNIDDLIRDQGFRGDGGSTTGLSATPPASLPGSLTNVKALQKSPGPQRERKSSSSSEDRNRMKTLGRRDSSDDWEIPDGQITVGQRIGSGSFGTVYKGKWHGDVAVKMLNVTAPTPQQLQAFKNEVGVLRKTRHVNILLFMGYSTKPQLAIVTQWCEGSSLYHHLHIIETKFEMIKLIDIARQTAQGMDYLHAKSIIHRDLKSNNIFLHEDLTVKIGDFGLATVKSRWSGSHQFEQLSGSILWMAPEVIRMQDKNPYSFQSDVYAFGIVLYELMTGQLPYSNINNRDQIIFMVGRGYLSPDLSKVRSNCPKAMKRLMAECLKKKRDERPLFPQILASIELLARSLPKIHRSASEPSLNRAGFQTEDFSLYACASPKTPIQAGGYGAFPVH
Chain of DDR1 (Q08345 19-913): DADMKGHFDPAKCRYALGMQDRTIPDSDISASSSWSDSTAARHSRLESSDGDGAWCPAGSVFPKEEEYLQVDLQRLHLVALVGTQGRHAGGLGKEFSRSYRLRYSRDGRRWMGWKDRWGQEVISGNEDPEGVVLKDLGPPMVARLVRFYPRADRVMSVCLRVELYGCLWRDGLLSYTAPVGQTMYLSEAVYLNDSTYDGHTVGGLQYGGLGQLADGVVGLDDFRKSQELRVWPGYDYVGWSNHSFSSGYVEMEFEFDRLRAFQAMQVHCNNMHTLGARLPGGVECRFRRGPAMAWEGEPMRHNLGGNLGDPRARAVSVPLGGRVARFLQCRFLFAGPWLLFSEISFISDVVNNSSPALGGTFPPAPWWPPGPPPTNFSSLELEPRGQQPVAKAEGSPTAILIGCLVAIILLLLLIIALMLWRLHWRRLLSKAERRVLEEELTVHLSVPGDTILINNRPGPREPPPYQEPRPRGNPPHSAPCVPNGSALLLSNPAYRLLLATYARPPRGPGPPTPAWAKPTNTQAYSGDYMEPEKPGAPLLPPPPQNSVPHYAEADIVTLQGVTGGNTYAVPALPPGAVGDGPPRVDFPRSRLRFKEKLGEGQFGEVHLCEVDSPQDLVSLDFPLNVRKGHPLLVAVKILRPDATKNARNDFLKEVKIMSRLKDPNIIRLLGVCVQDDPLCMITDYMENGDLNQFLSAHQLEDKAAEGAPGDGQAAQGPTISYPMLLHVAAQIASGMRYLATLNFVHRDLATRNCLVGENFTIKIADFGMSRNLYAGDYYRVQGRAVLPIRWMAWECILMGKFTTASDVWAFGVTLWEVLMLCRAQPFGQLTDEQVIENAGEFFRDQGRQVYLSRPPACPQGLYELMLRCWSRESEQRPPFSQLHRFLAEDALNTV
Chain of CSF1R (FMS) (P07333 20-972): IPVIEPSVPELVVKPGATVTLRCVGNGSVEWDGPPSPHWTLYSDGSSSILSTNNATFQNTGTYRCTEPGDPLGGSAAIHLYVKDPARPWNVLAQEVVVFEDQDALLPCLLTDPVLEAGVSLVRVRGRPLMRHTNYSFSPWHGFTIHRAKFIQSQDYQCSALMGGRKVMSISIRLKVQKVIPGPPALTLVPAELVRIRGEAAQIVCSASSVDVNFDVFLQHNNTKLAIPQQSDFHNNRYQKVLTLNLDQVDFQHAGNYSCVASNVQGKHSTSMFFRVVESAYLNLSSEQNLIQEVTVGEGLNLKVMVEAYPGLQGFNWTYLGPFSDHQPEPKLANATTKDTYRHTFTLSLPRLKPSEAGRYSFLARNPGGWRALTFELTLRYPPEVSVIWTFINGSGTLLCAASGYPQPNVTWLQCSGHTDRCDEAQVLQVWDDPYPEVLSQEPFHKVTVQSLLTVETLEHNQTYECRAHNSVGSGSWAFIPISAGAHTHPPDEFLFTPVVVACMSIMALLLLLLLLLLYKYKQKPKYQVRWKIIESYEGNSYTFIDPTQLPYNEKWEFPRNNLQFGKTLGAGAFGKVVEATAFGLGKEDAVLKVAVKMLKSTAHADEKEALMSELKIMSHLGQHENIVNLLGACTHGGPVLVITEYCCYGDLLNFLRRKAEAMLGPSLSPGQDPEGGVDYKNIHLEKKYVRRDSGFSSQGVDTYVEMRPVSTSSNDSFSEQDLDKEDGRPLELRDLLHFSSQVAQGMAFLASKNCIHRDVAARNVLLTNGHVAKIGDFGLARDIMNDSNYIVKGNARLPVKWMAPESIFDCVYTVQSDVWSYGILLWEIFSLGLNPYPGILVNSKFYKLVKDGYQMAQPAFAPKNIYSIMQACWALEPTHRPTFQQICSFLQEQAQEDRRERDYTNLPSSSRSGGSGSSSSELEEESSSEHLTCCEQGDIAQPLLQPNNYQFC
Chain of RAF-1 (CRAF) Y340D Y341D (P04049 whole entry Y340D/Y341D): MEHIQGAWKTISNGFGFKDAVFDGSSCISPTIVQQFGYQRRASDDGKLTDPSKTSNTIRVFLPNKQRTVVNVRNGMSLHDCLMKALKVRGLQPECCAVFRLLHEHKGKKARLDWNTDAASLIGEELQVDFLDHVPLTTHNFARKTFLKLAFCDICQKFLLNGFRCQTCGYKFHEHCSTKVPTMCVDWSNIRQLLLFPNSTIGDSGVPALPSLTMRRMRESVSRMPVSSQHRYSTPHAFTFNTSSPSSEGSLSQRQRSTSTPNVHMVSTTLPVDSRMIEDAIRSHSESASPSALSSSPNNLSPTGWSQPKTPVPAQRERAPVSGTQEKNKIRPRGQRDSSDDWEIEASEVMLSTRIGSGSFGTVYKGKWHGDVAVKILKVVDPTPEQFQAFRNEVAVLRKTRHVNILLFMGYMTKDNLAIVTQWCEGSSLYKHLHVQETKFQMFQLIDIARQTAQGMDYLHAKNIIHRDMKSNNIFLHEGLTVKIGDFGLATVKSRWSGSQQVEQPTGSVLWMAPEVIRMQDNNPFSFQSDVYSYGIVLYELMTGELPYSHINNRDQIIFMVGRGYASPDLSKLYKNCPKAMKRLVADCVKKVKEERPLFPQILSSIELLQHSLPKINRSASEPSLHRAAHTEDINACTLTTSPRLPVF
Chain of BRAF^V599E (P15056 416-766 V600E limits assumed): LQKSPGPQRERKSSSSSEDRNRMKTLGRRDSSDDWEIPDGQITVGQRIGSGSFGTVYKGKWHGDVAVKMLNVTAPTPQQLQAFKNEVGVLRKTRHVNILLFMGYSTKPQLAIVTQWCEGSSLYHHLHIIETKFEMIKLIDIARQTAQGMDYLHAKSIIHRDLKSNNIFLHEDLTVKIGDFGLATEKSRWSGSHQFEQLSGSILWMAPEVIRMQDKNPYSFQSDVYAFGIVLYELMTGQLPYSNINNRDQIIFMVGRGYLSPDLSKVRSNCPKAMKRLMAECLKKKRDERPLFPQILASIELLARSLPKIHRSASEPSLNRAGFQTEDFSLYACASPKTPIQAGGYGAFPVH

In the case of `Cc1ccc2c(Nc3cccc(Cl)c3F)nccc2c1NC(=O)c1csc2c(N)ncnc12` [Belvarafenib], the inhibition at 1 µM in test [1] (at 1 μM, read-out: inhibition of enzymatic activity, BRAF) is over 90%; in test [2], over 90%; in test [3] (at 1 μM, read-out: inhibition of enzymatic activity, DDR1), over 90%; in test [4] (at 1 μM, read-out: inhibition of enzymatic activity, RAF-1 (CRAF) Y340D Y341D), over 90%; in test [5] (at 1 μM, read-out: inhibition of enzymatic activity, DDR2), over 90%; in test [6] (at 1 μM, read-out: inhibition of enzymatic activity, CSF1R (FMS)), over 90%. Also, the IC50 was 41 nM in test [1] (confirmatory assay); 77 nM in test [3] (confirmatory assay); 2 nM in test [4] (confirmatory assay); 182 nM in test [5] (confirmatory assay); 44 nM in test [6] (confirmatory assay); 267 nM in test [7] (read-out: IC50 pERK). In test [7] (read-out: IC50 pMEK), the IC50 was over 10000 nM. In test [7] (Lovo, at 10 μM), this molecule showed an inhibition at 10 µM of 37%.
